The values that follow come from patent US4146628A, “Antiarrhythmic quinuclidine carboxylic acid xylidide and method of producing the same and similar compounds” (priority 1977, dated 1979).

The conditions of series [1]: Dahlbom and Dolby, Acta Pharm. Suecica (1969); cited from earlier work.
The nature of series [2]: Comparative tests of antiarrhythmic action, neurotoxicity and side effects (general statements). The following applies: general statement.
The conditions of series [3]: French Pat. No. 1,566,045; cited from earlier work.

Entries after “also recorded” stand apart in the source; their conditions may differ.

Take `Cc1cccc(C)c1NC(=O)C1CN2CCC1CC2` (stereo not drawn) [2,6-xylidide of quinuclidine-3-carboxylic acid]: the pharmacological effect entry in series [1] is on record as “no pharmacological effect except for a weak local anaesthetic action”. In addition, in series [2], the cardiac antiarrhythmic action entry is reported as “pronounced cardiac antiarrhythmic activity; also recorded: highly pronounced cardiac antiarrhythmic action”.
Consider `Cc1cccc(C)c1NC(=O)C1CC2CCN1CC2` (stereo not drawn) [2,6-xylidide of quinuclidine-2-carboxylic acid], for which the action indicated result in series [3] is “antiarrhythmic and local anaesthetic action”. Further, the figures for the cardiac antiarrhythmic action entry in series [2] and in series [2] (listed as 2,6,-xylidide of quinuclidine-2-carboxylic acid) were “devoid of useful cardiac antiarrhythmic action; also recorded: devoid of useful antiarrhythmic properties; also recorded: devoid of any useful cardiac antiarrhythmic effect” and “completely devoid of any useful antiarrhythmic action”, respectively. Besides, in series [2], the neurotoxicity entry is listed as “neurotoxic”.
